Values joined by “and” are separate entries in the source; they are usually repeats but may differ in a detail not shown here. Identical values can stand only once.
What was measured:
Jurkat cells = experiment: Cell adhesion assay of Jurkat cells on fibronectin; assay type: cell-based, human; settings: NAC 5 mM for 2 h pretreatment, eosin Y absorbance 540 nm, vs control
Description: Cell Adhesion Assay. Seven μg/ml of human fibronectin (Sigma Aldrich Chem Co) were saturated with 2% bovine serum albumin (BSA) for 30 min at 37° C. and washed twice with phosphate buffered saline (PBS). Jurkat cells were then seeded onto the wells for 2 h at 37° C.; then, nonadherent cells were aspirated, and the wells were rinsed with PBS. Adhering cells were fixed overnight with 2% formaldehyde and stained with eosin Y for 30 min. Eosin Y was then extracted by addition of a mixture of 1% of glacial acetic acid and 50% ethanol, and absorbance was measured at 540 nm.
NAC increases the adhesions of Jurkat cells on fibronectin. The adhesion assay was performed by using control or NAC (5 mM for 2 h)-treated Jurkat cells. […] Cell adhesion was then quantitated by staining the cells attached to junction protein-coated plates with eosin Y and reading the absorbance in a microplate reader.
Cells were solubilized and eosin Y and absorbance was quantitated at 540 nm. No antibody, illustrated by black bars; anti-VLA-4 (10 ng/ml) illustrated by grey bars; and anti-VLA-4 (10 μg/ml) illustrated by white bars. Data are means+/−SE(n=3).*, P less than 0.01 vs. control. From FIG. 1 it can be concluded that NAC treatment increases adhesion (junction protein molecules).

[1] = test system: Isolated uteri from virgin Wistar rats; experiment: isolated organ bath study of uterine contractions; design: species or system rat
Description: Animals were kept at 22° C., housed 3 per cage and fed ad libitum. Isolated uteri from virgin Wistar rats (200-280 g) in estrous, which was determined by examination of a daily vaginal smear, were used.
Protamine sulphate (PS) and NAC were dissolved in pure water.
All rats were sacrificed by cervical dislocation. The uterine horns were excised, carefully cleaned and mounted vertically in a 10 ml volume organ bath containing De Jalon's solution (NaCl 154 mM, KCl 5.6 mM, CaCl2×2H2O 0.41 mM, NaHCO 2 5.9 mM and glucose 2.8 mM), under 1 g tension, aerated with 95% oxygen and 5% carbon dioxide at 37° C. […] After 10 min increasing concentrations of PS were added until the total cessation of contractions was observed.
Myometrial tension was recorded isometrically with an organ bath and transducer.
Effects of treatments on uterine contractions were calculated as percentages for control, untreated and contracting conditions. Each data value is expressed as the mean±SEM. differences between groups were analyzed by two-way ANOVA. EC50 values were compared using one-way ANOVA

uterine contractions = experiment: clinical case: intravenous NAC prior to embryo transfer; assay type: in vivo, human; settings: patient, NAC 50 mg/kg intravenous infusion 60 min
Description: The very first case of clinical application of NAC prior to embryo transfer was recently documented. NAC was administered in a concentration of 50 mg/kg to a patient who had previously undergone five embryo transfers involving a total number of 8 good-quality embryos. Immediately before embryo transfer, the presence of increased uterine contractile activity was confirmed by ultrasound. NAC 50 mg/kg body weight was administered in intravenous infusion for 60 min. Embryo transfer was carried out 60 min from the end of the 60 min NAC 50 mg/kg body weight administration. Both before connecting the infusion and directly before embryo transfer, a transvaginal sagittal scan recording was performed.

pregnancy = experiment: pulsed oral administration of NAC to patients; assay type: in vivo, human; settings: three consecutive days a week
Description: Below is the result from giving pulsed administration of NAC to 15 patients, 8 of which became pregnant. According to this, NAC was administered to patients per os for 3 months or more according to the following schedule: 600 mg three times a day, three consecutive days a week. […] 7, no. 4, pp. 355-359, 2007.]; (2) splitting the total dose in 3 is simple for patients and, with reference to the known NAC pharmacokinetics [[…] and […], “Pharmacokinetic and pharmacodynamic studies of N-acetylcysteine, a potential chemopreventive agent during a phase I trial,” Cancer Epidemiology Biomarkers and Prevention, vol. 4, no. 3, pp. 245-251, 1995.], grants a nearly constant plasma level of the drug; (3) the four-day medication-free interval provides a washout period useful to limit the reported decrease of NAC plasma level observed during prolonged treatments. According to examples described in the specification 15 patients were treated with pulsed administration of N-acetyl-L-cysteine for use in IVF orally in a dose of 600 mg three times a day during three consecutive days followed by four days of interruption during 3 months or more.

[2] = design: species or system human; settings: in vivo
Description: GSH is e.g. normally conjugated to reactive metabolites formed by paracetamol and helps detoxify them. When paracetamol is overdosed GSH is however depleted and the paracetamol metabolites start reacting with cellular proteins, eventually leading to cell death. In the treatment of fulminant hepatic failure after paracetamol poisoning NAC acts instead of GSH in the detoxification of paracetamol metabolites.
The composition of the present invention, comprising NAC for the treatment of IVF according to one embodiment to be administered intravenously at a dose between approximately 50 and 150 mg/kg/day.
For overcoming this in cases of oral administration, an option is to provide NAC in a formulation with gastric protection, suitable for preventing NAC release/solubility in the stomach. Such formulations are well known in the art and may be used with the present invention. For example, tablet coatings that are resistant to gastric fluids and allow release of the drug only in the intestine, after its transit through the stomach, may be used. Commonly used formulations include polymers such as cellulose derivatives, methacrylate amino ester copolymers. […]

[3] = test system: cancer cells of epithelial origin; settings: cited from earlier work
[4] = thiol residue easily oxidized by oxygen, light and other radiations; cited from earlier work

CC(=O)N[C@@H](CS)C(=O)O [NAC, N-acetyl-L-cysteine]
augmentation of cell adhesion (Jurkat cells): ~35%
effect of pre-treatment on PS-induced relaxation ([1]; NAC pre-treatment 1 μg/ml, spontaneously active uteri): increased PS-induced relaxation
effect of pre-treatment on PS-induced relaxation ([1]; calcium ion-induced uterine contractions): modulated PS-induced relaxation
amplitude of uterine contractions (uterine contractions): apparent decrease in their amplitude
uterine contractions directly before embryo transfer (uterine contractions; from 10 contractions per 3 min before infusion, transvaginal scan): five
pregnancy after months post NAC treatment (pregnancy; individual patients 1-8, pulsed oral NAC 600 mg three times a day): 14 months and 3 months and 1 months (2×) and 19 months and 8 months and 6 months and 0 months
patients who became pregnant (pregnancy; of 15 patients, per os 600 mg three times a day, 3 months or more): 8
side effect of high oral doses [2]: may cause abdominal pain
effect on proliferation of cancer cells of epithelial origin ([3]; Cell Death and Differentiation 2005): marked antiproliferative effect
cell-cell and cell-substratum adhesion complexes ([3]; NAC-treated cancer cells): considerable increase
stability [4]: not a stable molecule

From patent US9585854B2, “N-acetyl-L-cysteine for use in in vitro fertilization” (IASOMAI AB, priority 2012, dated 2017)
